{"source": "ChEMBL document CHEMBL5465560", "about": "“Selectivity Literature for EUbOPEN Chemogenomic Library” (2024)", "key": {"[1]": {"target": "Serine/threonine-protein kinase PAK 3 (Homo sapiens) (UniProt O75914)", "sequence (O75914 whole entry, looked up)": "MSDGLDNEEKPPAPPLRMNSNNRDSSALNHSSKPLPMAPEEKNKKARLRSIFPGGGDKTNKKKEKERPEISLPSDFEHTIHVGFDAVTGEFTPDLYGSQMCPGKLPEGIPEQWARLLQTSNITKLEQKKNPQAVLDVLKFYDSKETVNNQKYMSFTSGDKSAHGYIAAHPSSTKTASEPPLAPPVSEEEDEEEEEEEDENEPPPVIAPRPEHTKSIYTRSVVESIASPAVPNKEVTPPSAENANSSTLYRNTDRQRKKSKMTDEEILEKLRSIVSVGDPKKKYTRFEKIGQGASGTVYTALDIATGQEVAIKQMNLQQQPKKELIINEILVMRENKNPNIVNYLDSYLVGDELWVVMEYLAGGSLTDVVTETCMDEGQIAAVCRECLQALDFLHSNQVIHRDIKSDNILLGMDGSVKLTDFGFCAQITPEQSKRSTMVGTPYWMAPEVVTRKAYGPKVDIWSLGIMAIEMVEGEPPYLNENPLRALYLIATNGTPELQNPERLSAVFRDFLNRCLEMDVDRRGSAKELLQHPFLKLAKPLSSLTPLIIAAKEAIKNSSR", "test": "Selectivity interaction (KinomeScan (DiscoverX)) EUB0001049a PAK3", "conditions": "at 1 µM"}, "[2]": {"target": "T1, Serine/threonine-protein kinase tousled-like 1 (Homo sapiens) (UniProt Q9UKI8)", "T1 sequence (whole entry)": "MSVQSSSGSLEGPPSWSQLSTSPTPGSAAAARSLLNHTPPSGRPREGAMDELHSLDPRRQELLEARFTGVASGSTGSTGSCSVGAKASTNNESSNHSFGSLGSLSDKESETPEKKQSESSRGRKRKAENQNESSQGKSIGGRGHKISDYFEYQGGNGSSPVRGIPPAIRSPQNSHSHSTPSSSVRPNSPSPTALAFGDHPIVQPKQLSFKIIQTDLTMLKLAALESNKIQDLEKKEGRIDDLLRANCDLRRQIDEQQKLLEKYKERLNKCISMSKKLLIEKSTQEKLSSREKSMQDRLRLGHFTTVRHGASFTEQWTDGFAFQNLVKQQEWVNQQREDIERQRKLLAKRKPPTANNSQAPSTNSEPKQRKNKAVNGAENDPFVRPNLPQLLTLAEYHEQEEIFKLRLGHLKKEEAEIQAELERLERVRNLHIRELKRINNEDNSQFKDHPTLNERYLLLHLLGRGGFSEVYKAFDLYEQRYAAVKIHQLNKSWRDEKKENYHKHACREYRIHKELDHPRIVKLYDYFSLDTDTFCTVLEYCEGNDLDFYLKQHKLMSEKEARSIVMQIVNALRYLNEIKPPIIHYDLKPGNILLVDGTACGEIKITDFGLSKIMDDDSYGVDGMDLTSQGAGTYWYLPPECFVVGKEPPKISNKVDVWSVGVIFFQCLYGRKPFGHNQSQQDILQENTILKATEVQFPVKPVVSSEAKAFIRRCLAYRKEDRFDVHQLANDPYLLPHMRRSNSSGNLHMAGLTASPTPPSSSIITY", "test": "Selectivity interaction (Ambit KINOMEscan and KiNATiv profiling in Jurkat cells) EUB0000090b TLK1", "format": "cell-based", "conditions": "at 1 µM"}, "[3]": {"target": "T1, Serine/threonine-protein kinase tousled-like 1 (Homo sapiens)", "test": "Selectivity interaction (ActivX KiNativ screen (kinase selectivity in THP-1 cell lysates)) EUB0000639a TLK1", "format": "subcellular", "conditions": "lysate, at 5 µM"}, "[4]": {"target": "Histone-lysine N-methyltransferase SETDB1 (Homo sapiens) (UniProt Q15047)", "test": "Selectivity interaction (Transferase panel (protein, RNA, and DNA methyltransferases. and EP300 (acetyltransferase))) EUB0000270b SETDB1"}, "[5]": {"target": "Phosphatidylinositol 4-kinase type 2-alpha (Homo sapiens) (UniProt Q9BTU6)", "sequence (Q9BTU6 whole entry)": "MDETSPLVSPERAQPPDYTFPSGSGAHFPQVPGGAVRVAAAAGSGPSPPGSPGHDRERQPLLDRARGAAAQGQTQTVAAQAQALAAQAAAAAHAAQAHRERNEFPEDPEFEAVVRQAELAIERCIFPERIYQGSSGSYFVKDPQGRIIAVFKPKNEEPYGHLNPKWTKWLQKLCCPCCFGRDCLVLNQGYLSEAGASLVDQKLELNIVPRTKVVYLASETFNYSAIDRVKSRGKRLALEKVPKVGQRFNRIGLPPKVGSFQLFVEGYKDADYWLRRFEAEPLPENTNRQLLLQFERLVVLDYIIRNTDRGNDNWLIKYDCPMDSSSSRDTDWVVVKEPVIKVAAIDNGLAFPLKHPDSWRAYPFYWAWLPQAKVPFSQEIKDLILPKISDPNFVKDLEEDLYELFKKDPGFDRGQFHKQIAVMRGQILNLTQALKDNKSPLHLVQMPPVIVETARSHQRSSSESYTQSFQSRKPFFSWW", "test": "Selectivity interaction (Adapta Assay) EUB0001632a PI4K2A", "conditions": "at 10 µM"}, "[6]": {"target": "T2, Protein kinase C iota type (Homo sapiens) (UniProt P41743)", "T2 sequence (whole entry)": "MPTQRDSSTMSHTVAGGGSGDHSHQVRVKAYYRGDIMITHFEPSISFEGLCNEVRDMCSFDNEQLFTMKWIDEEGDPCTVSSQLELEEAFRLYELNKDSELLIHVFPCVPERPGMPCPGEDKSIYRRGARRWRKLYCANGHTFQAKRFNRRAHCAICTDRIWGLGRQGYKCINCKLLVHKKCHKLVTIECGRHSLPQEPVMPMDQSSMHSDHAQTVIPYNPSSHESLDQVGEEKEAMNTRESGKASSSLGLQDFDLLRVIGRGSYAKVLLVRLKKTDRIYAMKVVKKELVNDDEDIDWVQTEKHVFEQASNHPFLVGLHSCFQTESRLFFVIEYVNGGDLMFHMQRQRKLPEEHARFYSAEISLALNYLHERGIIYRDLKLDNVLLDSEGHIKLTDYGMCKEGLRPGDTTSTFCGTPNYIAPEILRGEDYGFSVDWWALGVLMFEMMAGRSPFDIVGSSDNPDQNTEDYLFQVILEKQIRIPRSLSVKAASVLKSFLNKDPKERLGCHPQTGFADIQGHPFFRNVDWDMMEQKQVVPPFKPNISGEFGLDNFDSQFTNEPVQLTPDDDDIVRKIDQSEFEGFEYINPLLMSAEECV", "test": "Selectivity interaction (Kinase panel (Z-LYTE Assay)) EUB0001632a PRKCI", "conditions": "at 10 µM"}, "[7]": {"target": "Myosin light chain kinase, smooth muscle (Homo sapiens, UniProt Q15746)", "sequence (Q15746 whole entry)": "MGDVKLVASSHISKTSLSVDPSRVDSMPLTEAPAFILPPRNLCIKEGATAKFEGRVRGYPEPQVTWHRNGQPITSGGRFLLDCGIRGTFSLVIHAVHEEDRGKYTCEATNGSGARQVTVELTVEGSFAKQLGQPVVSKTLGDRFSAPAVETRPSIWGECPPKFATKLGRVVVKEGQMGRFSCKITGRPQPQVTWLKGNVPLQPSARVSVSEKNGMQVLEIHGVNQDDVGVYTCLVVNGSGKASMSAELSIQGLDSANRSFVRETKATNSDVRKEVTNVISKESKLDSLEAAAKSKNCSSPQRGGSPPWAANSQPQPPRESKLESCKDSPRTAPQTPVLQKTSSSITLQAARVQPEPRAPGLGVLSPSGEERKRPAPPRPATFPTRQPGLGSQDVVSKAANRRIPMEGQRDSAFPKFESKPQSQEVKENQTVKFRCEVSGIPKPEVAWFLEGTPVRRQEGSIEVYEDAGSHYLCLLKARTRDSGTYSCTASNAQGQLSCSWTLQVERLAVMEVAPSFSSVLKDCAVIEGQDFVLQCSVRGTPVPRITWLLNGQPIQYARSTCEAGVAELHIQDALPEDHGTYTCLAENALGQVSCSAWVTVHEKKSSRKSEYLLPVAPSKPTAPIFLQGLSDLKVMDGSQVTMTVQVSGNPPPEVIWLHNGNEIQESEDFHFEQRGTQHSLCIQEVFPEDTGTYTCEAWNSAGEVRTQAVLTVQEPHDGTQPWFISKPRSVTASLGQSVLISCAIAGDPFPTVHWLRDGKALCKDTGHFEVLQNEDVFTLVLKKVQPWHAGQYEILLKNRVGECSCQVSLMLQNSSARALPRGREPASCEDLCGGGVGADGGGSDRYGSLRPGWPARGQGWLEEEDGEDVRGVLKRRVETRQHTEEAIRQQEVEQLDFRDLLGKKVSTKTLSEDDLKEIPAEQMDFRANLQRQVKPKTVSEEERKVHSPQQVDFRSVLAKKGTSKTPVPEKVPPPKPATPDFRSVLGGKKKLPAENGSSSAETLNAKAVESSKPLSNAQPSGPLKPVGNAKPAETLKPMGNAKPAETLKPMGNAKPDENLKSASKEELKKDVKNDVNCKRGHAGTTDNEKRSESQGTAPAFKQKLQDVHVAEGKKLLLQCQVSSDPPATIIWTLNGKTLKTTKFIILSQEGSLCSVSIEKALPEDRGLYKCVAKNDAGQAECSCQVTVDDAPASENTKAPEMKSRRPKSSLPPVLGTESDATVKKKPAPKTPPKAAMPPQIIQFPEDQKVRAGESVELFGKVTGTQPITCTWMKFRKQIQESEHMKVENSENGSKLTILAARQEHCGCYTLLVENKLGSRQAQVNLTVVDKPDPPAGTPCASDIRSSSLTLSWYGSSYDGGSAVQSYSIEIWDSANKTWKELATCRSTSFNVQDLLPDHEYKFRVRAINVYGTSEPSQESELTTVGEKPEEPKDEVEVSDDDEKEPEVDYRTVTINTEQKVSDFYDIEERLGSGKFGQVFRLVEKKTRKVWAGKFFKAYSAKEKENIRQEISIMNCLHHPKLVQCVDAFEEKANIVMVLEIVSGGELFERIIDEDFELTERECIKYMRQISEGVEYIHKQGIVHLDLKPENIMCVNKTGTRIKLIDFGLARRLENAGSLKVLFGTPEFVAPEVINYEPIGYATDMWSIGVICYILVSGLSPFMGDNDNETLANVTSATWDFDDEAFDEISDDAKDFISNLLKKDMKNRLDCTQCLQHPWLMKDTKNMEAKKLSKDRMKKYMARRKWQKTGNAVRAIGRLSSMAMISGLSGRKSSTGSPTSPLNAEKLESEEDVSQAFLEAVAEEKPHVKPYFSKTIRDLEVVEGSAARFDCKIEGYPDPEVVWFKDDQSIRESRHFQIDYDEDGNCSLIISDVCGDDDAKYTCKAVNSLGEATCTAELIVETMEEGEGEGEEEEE", "test": "Selectivity interaction (KinomeScan (DiscoverX)) EUB0000695a MYLK", "conditions": "at 100 nM"}, "[8]": {"target": "Prostaglandin G/H synthase 1 (Homo sapiens) (UniProt P23219)", "sequence (P23219 whole entry)": "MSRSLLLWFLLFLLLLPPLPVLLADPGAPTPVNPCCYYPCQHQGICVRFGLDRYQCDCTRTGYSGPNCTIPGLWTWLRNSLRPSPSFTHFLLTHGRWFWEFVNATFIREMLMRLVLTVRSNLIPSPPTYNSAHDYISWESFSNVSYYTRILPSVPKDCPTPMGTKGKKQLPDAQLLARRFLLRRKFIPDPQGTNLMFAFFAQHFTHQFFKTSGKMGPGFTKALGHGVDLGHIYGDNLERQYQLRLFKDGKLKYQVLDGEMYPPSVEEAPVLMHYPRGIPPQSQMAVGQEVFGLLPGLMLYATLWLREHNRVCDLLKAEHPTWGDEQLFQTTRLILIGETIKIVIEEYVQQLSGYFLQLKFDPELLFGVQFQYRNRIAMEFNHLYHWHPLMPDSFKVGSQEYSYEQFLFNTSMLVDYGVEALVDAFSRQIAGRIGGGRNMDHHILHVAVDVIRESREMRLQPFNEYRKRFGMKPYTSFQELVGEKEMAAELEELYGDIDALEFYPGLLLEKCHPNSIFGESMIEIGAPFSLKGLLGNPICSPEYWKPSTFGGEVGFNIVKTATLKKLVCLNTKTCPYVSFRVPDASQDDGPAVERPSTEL", "test": "Selectivity interaction (Panel of non-epigenetic targets (kinases, GPCRs, ion channels, and transporters, Eurofins) ) EUB0000271b PTGS1", "conditions": "at 1 µM"}, "[9]": {"target": "Cyclin-dependent kinase 8 (Homo sapiens, UniProt P49336)", "test": "Selectivity interaction (KinomeScan (DiscoverX)) EUB0000655a CDK8", "conditions": "at 10 µM"}, "[10]": {"target": "T3, Inhibitor of nuclear factor kappa-B kinase subunit epsilon (Homo sapiens) (UniProt Q14164)", "T3 sequence (whole entry)": "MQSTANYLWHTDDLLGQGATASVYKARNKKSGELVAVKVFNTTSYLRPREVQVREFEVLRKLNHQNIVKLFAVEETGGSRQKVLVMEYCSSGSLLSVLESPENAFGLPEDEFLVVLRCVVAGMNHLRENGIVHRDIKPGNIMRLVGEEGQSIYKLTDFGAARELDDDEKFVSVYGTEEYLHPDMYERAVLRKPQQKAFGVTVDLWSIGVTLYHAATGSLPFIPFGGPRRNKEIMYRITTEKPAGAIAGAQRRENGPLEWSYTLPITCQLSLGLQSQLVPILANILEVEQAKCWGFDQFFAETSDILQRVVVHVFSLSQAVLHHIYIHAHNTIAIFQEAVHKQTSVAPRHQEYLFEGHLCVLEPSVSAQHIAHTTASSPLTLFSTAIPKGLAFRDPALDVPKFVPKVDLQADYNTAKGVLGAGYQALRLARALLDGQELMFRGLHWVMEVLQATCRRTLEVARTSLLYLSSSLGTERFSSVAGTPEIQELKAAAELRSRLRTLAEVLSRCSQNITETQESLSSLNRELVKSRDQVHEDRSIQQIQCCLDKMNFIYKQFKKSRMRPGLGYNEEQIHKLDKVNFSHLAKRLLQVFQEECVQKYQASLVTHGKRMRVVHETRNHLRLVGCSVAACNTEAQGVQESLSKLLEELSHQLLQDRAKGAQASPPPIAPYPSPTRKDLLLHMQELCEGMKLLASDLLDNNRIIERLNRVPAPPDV", "test": "Selectivity interaction (ActivX KiNativ screen (ex vivo kinase selectivity in human PBMCs)) EUB0001619a IKBKE", "format": "cell-based", "conditions": "PBMC, at 1 µM"}, "[11]": {"target": "Phosphatidylinositol 4-phosphate 5-kinase type-1 gamma (Homo sapiens) (UniProt O60331)", "sequence (O60331 whole entry)": "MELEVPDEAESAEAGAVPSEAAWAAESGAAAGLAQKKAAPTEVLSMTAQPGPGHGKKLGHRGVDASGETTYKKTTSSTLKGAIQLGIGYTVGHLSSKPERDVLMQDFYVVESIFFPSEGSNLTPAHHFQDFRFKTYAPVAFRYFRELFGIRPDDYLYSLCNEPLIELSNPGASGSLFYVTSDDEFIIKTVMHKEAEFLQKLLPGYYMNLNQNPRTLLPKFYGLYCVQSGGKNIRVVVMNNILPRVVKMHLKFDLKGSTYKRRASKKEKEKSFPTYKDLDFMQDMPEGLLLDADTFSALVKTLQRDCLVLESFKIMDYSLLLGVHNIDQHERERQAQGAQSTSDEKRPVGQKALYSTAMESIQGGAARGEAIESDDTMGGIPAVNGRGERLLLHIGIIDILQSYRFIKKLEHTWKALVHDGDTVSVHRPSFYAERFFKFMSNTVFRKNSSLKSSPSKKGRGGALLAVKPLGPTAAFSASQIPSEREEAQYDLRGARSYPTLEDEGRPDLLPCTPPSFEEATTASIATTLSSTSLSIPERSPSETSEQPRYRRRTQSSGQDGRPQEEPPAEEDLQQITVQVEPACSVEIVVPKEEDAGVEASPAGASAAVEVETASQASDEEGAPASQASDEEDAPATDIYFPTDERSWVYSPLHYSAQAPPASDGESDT", "test": "Selectivity interaction (KinomeScan (DiscoverX)) EUB0001619a PIP5K1C", "conditions": "at 1 µM"}, "[12]": {"target": "Tyrosine-protein kinase Fyn (Homo sapiens) (UniProt P06241)", "test": "Selectivity interaction (SelectScreen profiling (Invitrogen)) EUB0000607a FYN", "conditions": "at 2 µM"}, "[13]": {"target": "Tyrosine-protein kinase Fes/Fps (Homo sapiens) (UniProt P07332)", "sequence (P07332 whole entry)": "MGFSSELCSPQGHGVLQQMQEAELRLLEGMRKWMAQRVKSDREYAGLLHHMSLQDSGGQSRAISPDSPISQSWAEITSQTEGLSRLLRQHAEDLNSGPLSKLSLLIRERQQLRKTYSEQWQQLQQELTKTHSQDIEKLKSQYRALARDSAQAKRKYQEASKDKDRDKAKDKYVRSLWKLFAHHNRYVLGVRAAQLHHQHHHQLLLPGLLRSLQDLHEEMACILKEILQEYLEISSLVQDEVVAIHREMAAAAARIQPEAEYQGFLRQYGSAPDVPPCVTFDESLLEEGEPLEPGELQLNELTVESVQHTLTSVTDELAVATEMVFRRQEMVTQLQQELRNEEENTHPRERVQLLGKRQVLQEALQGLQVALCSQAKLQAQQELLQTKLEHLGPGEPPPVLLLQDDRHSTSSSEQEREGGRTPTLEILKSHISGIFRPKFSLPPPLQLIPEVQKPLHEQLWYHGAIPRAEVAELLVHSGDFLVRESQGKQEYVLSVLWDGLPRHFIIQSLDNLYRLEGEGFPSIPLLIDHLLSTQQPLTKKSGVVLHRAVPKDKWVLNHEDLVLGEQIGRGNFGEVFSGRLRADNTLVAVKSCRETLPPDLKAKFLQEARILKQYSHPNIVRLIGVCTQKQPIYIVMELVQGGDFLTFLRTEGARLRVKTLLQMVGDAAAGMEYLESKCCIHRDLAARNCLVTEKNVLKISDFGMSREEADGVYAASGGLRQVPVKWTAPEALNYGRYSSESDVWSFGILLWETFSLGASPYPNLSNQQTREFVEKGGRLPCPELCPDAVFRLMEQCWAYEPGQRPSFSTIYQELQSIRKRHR", "test": "Selectivity interaction (Kinase panel (DSF assay)) EUB0001558a FES"}}, "data": [{"smiles": "COc1cc(Nc2nc(C)cc(-c3cnn4nc(OC)ccc34)n2)cc(C(F)(F)F)c1", "values": [{"measurement": "% of control", "setting": "[1]", "value": 85, "unit": "%"}]}, {"smiles": "CN(C)C/C=C/C(=O)Nc1ccc(C(=O)N2CCCC(Nc3ncc(Cl)c(-c4c[nH]c5ccccc45)n3)C2)cc1", "note": "(centres undefined)", "values": [{"measurement": "% of control", "setting": "[2]", "value": 92, "unit": "%"}]}, {"smiles": "CC[C@@H]1[C@H](F)C(=O)N[C@@H]1COc1nccc2cc(C(N)=O)c(OC)cc12", "note": "[ZIMLOVISERTIB]", "values": [{"measurement": "% of inhibition", "setting": "[3]", "value": 74, "unit": "%"}]}, {"smiles": "Cc1cc(CN)cc(C)c1-c1ncn(C)c1-c1cncn1C", "values": [{"measurement": "% activity", "setting": "[4]; at 1 µM", "value": "> 90", "unit": "%"}, {"measurement": "% activity", "setting": "[4]; at 10 µM", "value": "> 80", "unit": "%"}]}, {"smiles": "Cn1cc(-n2cnc3c(NCc4nc5cc(Cl)c(Cl)cc5[nH]4)nc(N4CCOCC4)nc32)cn1", "values": [{"measurement": "% of inhibition", "setting": "[5]", "value": 1.38, "unit": "%"}, {"measurement": "% of control", "setting": "[6]", "value": 8.02, "unit": "%"}]}, {"smiles": "Cc1cc(F)c(C(=O)Nc2cccc(-c3nncn3C(C)C)n2)cc1-n1cnc(C2CC2)c1", "values": [{"measurement": "% of control", "setting": "[7]", "value": 100, "unit": "%"}]}, {"smiles": "Cc1cc(C)cc([C@@H]2c3cc(C)ccc3NC(=O)CN2C(=O)c2ccc(Br)s2)c1", "values": [{"measurement": "% of inhibition", "setting": "[8]", "value": 17, "unit": "%"}]}, {"smiles": "CN(C)CCOc1ccc(-c2nc(-c3ccncc3)c(-c3ccc4c(c3)CC/C4=N\\O)[nH]2)cc1", "values": [{"measurement": "% of control", "setting": "[9]", "value": 83, "unit": "%"}]}, {"smiles": "N#Cc1cccc(-c2c[nH]c3ncnc(N4CCOCC4)c23)c1", "values": [{"measurement": "% of inhibition", "setting": "[10]", "value": 19, "unit": "%"}, {"measurement": "% of control", "setting": "[11]", "value": 70, "unit": "%"}]}, {"smiles": "CNC(=O)Nc1ccc(-c2nc(N3CC4CCC(C3)O4)c3cnn(C4CCC5(CC4)OCCO5)c3n2)cc1", "values": [{"measurement": "% of inhibition", "setting": "[12]", "value": 2, "unit": "%"}]}, {"smiles": "CC(C)(O)[C@H](F)CN1Cc2cc(NC(=O)c3cnn4cccnc34)c(N3CCOCC3)cc2C1=O", "values": [{"measurement": "dTM", "setting": "[13]", "value": 0.3, "unit": "K"}]}]}
